Read-outs that look alike come from different tables or passages of the source.
Columns and labels:
[1] = test system: HCT-15 (Colon Cancer); test: NCI 60 one dose screen; assay type: cell-based, human
[2] = test system: SF-539; test: NCI 60 one dose screen; assay type: cell-based, human; conditions: one dose; CNS Cancer; SF-539
[3] = test system: 60 different human tumor cell lines; conditions: five dose
[4] = test system: SK-MEL-28; test: Melanoma cytotoxicity assay (resazurin); assay type: cell-based; conditions: human, 24 h
Procedure, shortened: (§1)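 About 4000 cells per well were seeded and held 24 h at 37° C, 5% CO2, then exposed to compounds in triplicate for 24 h. Resazurin was added for 6 h and fluorescence read at 544/590 nm; IC50 came from sigmoidal fits of viability versus concentration.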

[5] = test system: SK-MEL-25; test: Melanoma cytotoxicity assay (resazurin); assay type: cell-based
Procedure, shortened: as §1

[6] = test system: gliosarcoma (SF-539); test: NCI 60 five dose screen
[7] = test system: SR; test: NCI 60 five dose screen
[8] = test system: SF-295; test: NCI 60 one dose screen; assay type: cell-based, human; conditions: one dose; CNS Cancer; SF-295

Structure (SMILES): C[C@]12CC[C@H]3[C@@H](CC=C4c5sc(Nc6ccccc6)nc5CC[C@@]43C)[C@@H]1CC[C@@H]2O [IIIa.10, (1S,2R,13R,14S,17S,18S)-7-anilino-2,18-dimethyl-8-thia-6-azapentacyclo[11.7.0.02,10.05,9.014,18]icosa-5(9),6,10-trien-17-ol]
- Growth Percent [1]: −30.18%
- Growth Percent [2]: −34.31%
- TGI ([3]; 786-0 (Renal Cancer)): 3.30E−6
- TGI ([3]; A498 (Renal Cancer)): 5.66E−6
- TGI ([3]; A549/ATCC (Non-small Cell Lung Cancer)): 6.02E−6
- TGI ([3]; ACHN (Renal Cancer)): 3.25E−6
- TGI ([3]; BT-549 (Breast Cancer)): 4.31E−6
- TGI ([3]; CAKI-1 (Renal Cancer)): 5.68E−6
- TGI ([3]; CCRF-CEM (Leukemia)): 2.71E−5
- TGI ([3]; COLO 205 (Colon Cancer)): 5.61E−6
- TGI ([3]; DU-145 (Prostate Cancer)): 3.62E−6
- TGI ([3]; EKVX (Non-small Cell Lung Cancer)): 9.26E−6
- TGI ([3]; HCC-2998 (Colon Cancer)): 3.56E−6
- TGI ([3]; HCT-15 (Colon Cancer)): 5.15E−6
- TGI ([3]; HCT-116 (Colon Cancer)): 3.01E−6
- TGI ([3]; HL-60(TB) (Leukemia)): 6.87E−6
- TGI ([3]; HOP-62 (Non-small Cell Lung Cancer)): 6.54E−6
- TGI ([3]; HOP-92 (Non-small Cell Lung Cancer)): 6.77E−6
- TGI ([3]; HS 578T (Breast Cancer)): 1.72E−5
- TGI ([3]; HT29 (Colon Cancer)): 4.45E−6
- TGI ([3]; IGROV1 (Ovarian Cancer)): 7.85E−6
- TGI ([3]; K-562 (Leukemia)): 1.26E−5
- TGI ([3]; KM12 (Colon Cancer)): 3.12E−6
- TGI ([3]; LOX IMVI (Melanoma)): 2.77E−6
- TGI ([3]; M14 (Melanoma)): 4.27E−6
- TGI ([3]; MALME-3M (Melanoma)): 5.89E−6
- TGI ([3]; MCF7 (Breast Cancer)): 4.73E−6
- TGI ([3]; MDA-MB-231/ATCC (Breast Cancer)): 4.63E−6
- TGI ([3]; MDA-MB-435 (Melanoma)): 7.03E−6
- TGI ([3]; MDA-MB-468 (Breast Cancer)): 3.38E−6
- TGI ([3]; MOLT-4 (Leukemia)): 8.07E−6
- TGI ([3]; NCI-H23 (Non-small Cell Lung Cancer)): 5.04E−6
- TGI ([3]; NCI-H226 (Non-small Cell Lung Cancer)): 5.57E−6
- TGI ([3]; NCI-H322M (Non-small Cell Lung Cancer)): 1.11E−5
- TGI ([3]; NCI-H460 (Non-small Cell Lung Cancer)): 4.04E−6
- TGI ([3]; NCI-H522 (Non-small Cell Lung Cancer)): 4.50E−6
- TGI ([3]; NCI/ADR-RES (Ovarian Cancer)): 9.17E−5
- TGI ([3]; OVCAR-3 (Ovarian Cancer)): 2.62E−6
- TGI ([3]; OVCAR-4 (Ovarian Cancer)): 1.54E−5
- TGI ([3]; OVCAR-5 (Ovarian Cancer)): 7.86E−6
- TGI ([3]; OVCAR-8 (Ovarian Cancer)): 1.49E−5
- TGI ([3]; PC-3 (Prostate Cancer)): 5.84E−6
- TGI ([3]; RXF 393 (Renal Cancer)): 2.28E−6
- TGI ([3]; SF-268 (CNS Cancer)): 3.32E−6
- TGI ([3]; SK-MEL-2 (Melanoma)): 5.64E−6
- TGI ([3]; SK-MEL-5 (Melanoma)): 3.41E−6
- TGI ([3]; SK-MEL-28 (Melanoma)): 3.99E−6
- TGI ([3]; SK-OV-3 (Ovarian Cancer)): 1.79E−5
- TGI ([3]; SN12C (Renal Cancer)): 3.28E−6
- TGI ([3]; SNB-19 (CNS Cancer)): 3.77E−6
- TGI ([3]; SNB-75 (CNS Cancer)): 3.05E−6
- TGI ([3]; SW-620 (Colon Cancer)): 5.36E−6
- TGI ([3]; TK-10 (Renal Cancer)): 6.63E−6
- TGI ([3]; U251 (CNS Cancer)): 2.79E−6
- TGI ([3]; UACC-62 (Melanoma)): 3.96E−6
- TGI ([3]; UACC-257 (Melanoma)): 6.68E−6
- TGI ([3]; UO-31 (Renal Cancer)): 3.05E−6
- SK-MEL-28 (% viability) [4]: 13.79%
- IC50 ([5]; Homo sapiens, SK-MEL-25 melanoma cells (head prints SK-25), read-out: SK-25 IC50): > 20 µM
- SK-MEL-25 (% viability) ([5]; human, 24 h): 13.15%
- GI50 ([6]; Homo sapiens, SF-539): 1.19 µM
- CC50 ([6]; Homo sapiens, SF-539, read-out: LC50): 5.74 µM
- TGI ([6]; SF-539 (CNS Cancer), five dose): 2.62E−6
- GI50 ([7]; Homo sapiens, SR): 0.241 µM
- CC50 ([7]; Homo sapiens, SR, read-out: LC50): > 100 µM
- TGI ([7]; SR (Leukemia), five dose): 6.10E−6
- Growth Percent [8]: 7.36%
